Test results from US20260374773A1, “MULTI-CYCLIC IRAK AND FLT3 INHIBITING COMPOUNDS AND USES THEREOF” (CHILDREN'S HOSPITAL MEDICAL CENTER, priority 2022, published 2026).

Each molecule was assayed against T1, FLT3 (Homo sapiens, UniProt P36888) (assay: NanoBRET target engagement assay in HEK-293 cells, FLT3). Details: Table 14; live HEK-293 cells, 1 h.
T1 sequence (P36888 27-993): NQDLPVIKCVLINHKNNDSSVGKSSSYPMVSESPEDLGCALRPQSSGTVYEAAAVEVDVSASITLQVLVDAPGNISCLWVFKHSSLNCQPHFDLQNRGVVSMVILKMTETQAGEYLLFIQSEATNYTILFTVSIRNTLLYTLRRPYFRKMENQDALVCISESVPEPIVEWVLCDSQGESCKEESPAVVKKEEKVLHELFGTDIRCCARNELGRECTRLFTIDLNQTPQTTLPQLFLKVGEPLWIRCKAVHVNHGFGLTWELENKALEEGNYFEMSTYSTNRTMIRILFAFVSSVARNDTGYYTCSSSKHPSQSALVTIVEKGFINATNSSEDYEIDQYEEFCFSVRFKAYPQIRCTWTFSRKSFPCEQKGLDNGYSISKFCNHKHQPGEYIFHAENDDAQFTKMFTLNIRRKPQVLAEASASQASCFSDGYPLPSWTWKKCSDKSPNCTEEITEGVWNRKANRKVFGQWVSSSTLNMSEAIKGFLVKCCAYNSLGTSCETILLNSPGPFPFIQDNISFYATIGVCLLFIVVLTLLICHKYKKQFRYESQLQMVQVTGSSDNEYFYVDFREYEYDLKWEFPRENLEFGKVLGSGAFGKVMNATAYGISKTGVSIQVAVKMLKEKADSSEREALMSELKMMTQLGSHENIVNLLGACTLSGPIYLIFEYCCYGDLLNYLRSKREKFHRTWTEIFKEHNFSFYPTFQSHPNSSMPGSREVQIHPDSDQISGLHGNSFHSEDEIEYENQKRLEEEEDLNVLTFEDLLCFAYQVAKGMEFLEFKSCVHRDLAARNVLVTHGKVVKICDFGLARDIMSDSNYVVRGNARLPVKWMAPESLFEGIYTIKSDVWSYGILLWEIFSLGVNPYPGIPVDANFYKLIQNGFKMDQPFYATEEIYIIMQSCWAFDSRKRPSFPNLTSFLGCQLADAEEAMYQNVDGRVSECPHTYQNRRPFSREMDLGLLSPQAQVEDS
Assay type: cell-based
From the text: The NanoBRET assay measures kinase engagement in real time in the context of the intact cell. Unlike the previously described biochemical kinase assay methodology, the NanoBRET assay measures the binding and activity characteristics under equilibrium conditions using full-length kinases in the presence of cellular concentrations of ATP in live, uncompromised cells. As such, the assay provides a more relevant assessment of kinase potency and selectivity that would be expected to be observed in the native cellular environment, where potency is often considerably lower than that observed in the isolated biochemical assays (Vasta, J. D. et al., (2018) Cell Chem. Biol. 25, 206-214). The assay uses a Kinase-NanoLuc® fusion vector expressing a kinase protein to which a luciferase tag has been added, a cell-permeant fluorescent NanoBRET™ tracer, a NanoLuc® substrate, and an extracellular NanoLuc® inhibitor. Upon expression of the luciferase-tagged kinase, cells will produce a strong BRET signal only in the presence of the NanoBRET™ tracer. The extracellular NanoLuc® inhibitor ensures that the BRET signal observed emanates only from live cells. Because the BRET signal has tight distance constraints, addition of the test compound will decrease the BRET signal if the compound competes with the NanoBRET™ tracer for binding to the kinase domain. Under the appropriate tracer conditions established by the manufacturer, quantitative intracellular affinity and relative potency can then be determined using Mass Action model equations.
HEK-293 cells were purchased from ATCC. FuGENEHD Transfection Reagent, Kinase-NanoLucfusion plasmids, Transfection Carrier DNA, NanoBRETTracers and dilution buffer, NanoBRETNano-Glo Substrate, Extracellular NanoLucInhibitor were obtained from Promega.
Assays were conducted following Promega assay protocol with some modifications. HEK-293 Cells were transiently transfected with Kinase-NanoLucFusion Vector DNA by FuGENEHD Transfection Reagent. Testing compounds were delivered into 384 well assay plate by Echo 550 (LabcyteInc, Sunnyvale, CA). Transfected cells were harvested and mixed with NanoBRETTracer Reagent and dispensed into 384 well plates and incubated at 37 °C in 5% CO2 cell culture incubator for 1 hour. The NanoBRETNano-Glo Substrate plus Extracellular NanoLucInhibitor Solution were added into the wells of the assay plate and incubated for 2-3 minutes at room temperature. The donor emission wavelength (460 nm) and acceptor emission wavelength (600 nm) were measured in the En Visionplate reader. The BRET Ratios were calculated.
BRET Ratio=[(Acceptor sample÷Donor sample)−(Acceptor no-tracer control÷Donor no-tracer control)].
The IC50 values of compounds were calculated with Prism GraphPad program.
• 1). Cultivate HEK-293 cells (70-80% confluence) appropriately prior to assay. Trypsinize and collect HEK-293 cells. • 2). Prepare lipid:DNA complexes as follows: • a. Prepare a 10 μg/ml solution of DNA in Opti-MEM without serum that consists of the following ratios of carrier DNA and DNA encoding NanoLuc® fusion. 9.0 μg/mL of Transfection Carrier DNA, 1.0 μg/mL of NanoLuc fusion vector DNA and 1 mL of Opti-MEM without phenol red. Mix thoroughly. • b. Add 30 μl of FuGENE HD Transfection Reagent into each milliliter of DNA mixture to form lipid:DNA complex. • c. Mix by inversion 10 times. • d. Incubate at ambient temperature for 20 minutes to allow complexes to form. • 3). In a sterile, conical tube, mix 1 part of lipid:DNA complex with 20 parts of HEK-293 cells in suspension. Mix gently by inversion 5 times. • 4). Dispense cells+lipid:DNA complex into a sterile tissue culture dish and incubate for 22-24 hours.
Each test compound is delivered from the compound source plate to the wells of 384-well white NBS plate by Echo 550.
3. Preparation of Cells with NanoBRET™ Tracer Reagent • 1). Remove medium from dish with transfected HEK-293 cells via aspiration, trypsinize and allow cells to dissociate from the dish. • 2). […]

SMILES | IC50
COc1cn2ncc(-c3nc(N[C@@H]4CCCNC4)c(F)cc3F)c2nc1C(C)(C)O [Compound 11, (R)-2-(3-(3,5-difluoro-6-(piperidin-3-ylamino)pyridin-2-yl)-6-methoxypyrazolo[1,5-a]pyrimidin-5-yl)propan-2-ol] | 5 nM
COc1cn2ncc(-c3ccc(F)c(N[C@@H]4CCCNC4)n3)c2nc1C1CC1 [Compound 5, (R)-6-(5-cyclopropyl-6-methoxypyrazolo[1,5-a]pyrimidin-3-yl)-3-fluoro-N-(piperidin-3-yl)pyridin-2-amine] | 9 nM
COc1cn2ncc(-c3nc(N[C@H]4CNC[C@@H]4F)c(F)cc3F)c2nc1C(C)(C)O [Compound 12, 2-(3-(3,5-difluoro-6-(((3S,4S)-4-fluoropyrrolidin-3-yl)amino)pyridin-2-yl)-6-methoxypyrazolo[1,5-a]pyrimidin-5-yl)propan-2-ol] | 321 nM
COc1cn2ncc(-c3nc(N[C@H]4CNCC[C@@H]4F)c(F)cc3F)c2nc1C(C)(C)O [Compound 13, 2-(3-(3,5-difluoro-6-(((3S,4S)-4-fluoropiperidin-3-yl)amino)pyridin-2-yl)-6-methoxypyrazolo[1,5-a]pyrimidin-5-yl)propan-2-ol] | 4 nM

More lines, now with the values ahead:

IC50 | SMILES
< 0.5 nM | COc1cn2ncc(-c3nc(N[C@H]4CNCC[C@@H]4F)c(F)cc3F)c2nc1C1CC1 [Compound 22, 6-(5-cyclopropyl-6-methoxypyrazolo[1,5-a]pyrimidin-3-yl)-3,5-difluoro-N-((3S,4S)-4-fluoropiperidin-3-yl)pyridin-2-amine]
< 0.5 nM | COc1cn2ncc(-c3ccc(F)c(N[C@H]4CNCC[C@@H]4F)n3)c2nc1C1CC1 [Compound 6, 6-(5-cyclopropyl-6-methoxypyrazolo[1,5-a]pyrimidin-3-yl)-3-fluoro-N-((3S,4S)-4-fluoropiperidin-3-yl)pyridin-2-amine]
< 0.5 nM | COc1cn2ncc(-c3nc(N[C@H]4CNCC[C@@H]4F)ccc3F)c2nc1C1CC1 [Compound 3, 6-(5-cyclopropyl-6-methoxypyrazolo[1,5-a]pyrimidin-3-yl)-5-fluoro-N-((3S,4S)-4-fluoropiperidin-3-yl)pyridin-2-amine]
0.6 nM | COc1cn2ncc(-c3cccc(N[C@H]4CNCC[C@@H]4F)n3)c2nc1C1CC1 [Compound 21, 6-(5-cyclopropyl-6-methoxypyrazolo[1,5-a]pyrimidin-3-yl)-N-((3S,4S)-4-fluoropiperidin-3-yl)pyridin-2-amine]

Same assay, conditions: Table 20; live HEK-293 cells, 1 h

SMILES | IC50
COc1cn2ncc(-c3nc(N[C@@H]4CCCNC4)ncc3F)c2nc1C1CC1 [Compound 14a, (R)-4-(5-cyclopropyl-6-methoxypyrazolo[1,5-a]pyrimidin-3-yl)-5-fluoro-N-(piperidin-3-yl)pyrimidin-2-amine] | < 0.5 nM
COc1cn2ncc(-c3nc(N[C@H]4CNCC[C@@H]4F)ncc3F)c2nc1C(C)(C)O [Compound 6a, 2-(3-(5-fluoro-2-(((3S,4S)-4-fluoropiperidin-3-yl)amino)pyrimidin-4-yl)-6-methoxypyrazolo[1,5-a]pyrimidin-5-yl)propan-2-ol] | 12 nM
COc1cn2ncc(-c3nc(N[C@@H]4CCCNC4)ncc3F)c2nc1C(C)(C)O [Compound 4a, (R)-2-(3-(5-fluoro-2-(piperidin-3-ylamino)pyrimidin-4-yl)-6-methoxypyrazolo[1,5-a]pyrimidin-5-yl)propan-2-ol] | 52 nM
COc1cn2ncc(-c3nc(N[C@H]4CNC[C@@H]4F)ncc3F)c2nc1C(C)(C)O [Compound 5a, 2-(3-(5-fluoro-2-(((3S,4S)-4-fluoropyrrolidin-3-yl)amino)pyrimidin-4-yl)-6-methoxypyrazolo[1,5-a]pyrimidin-5-yl)propan-2-ol] | 113 nM
COc1cn2ncc(-c3ccnc(N[C@H]4CNCC[C@@H]4F)n3)c2nc1C(C)(C)O [Compound 3a, 2-(3-(2-(((3S,4S)-4-fluoropiperidin-3-yl)amino)pyrimidin-4-yl)-6-methoxypyrazolo[1,5-a]pyrimidin-5-yl)propan-2-ol] | 1510 nM

Other lines, results leading:

IC50 | SMILES
1 nM | COc1cn2ncc(-c3cncc(N[C@H]4CNCC[C@@H]4F)n3)c2nc1C1CC1 [Compound 12a, 6-(5-cyclopropyl-6-methoxypyrazolo[1,5-a]pyrimidin-3-yl)-N-((3S,4S)-4-fluoropiperidin-3-yl)pyrazin-2-amine]
0.5 nM | COc1cn2ncc(-c3nc(N[C@H]4CNC[C@@H]4F)ncc3F)c2nc1C1CC1 [Compound 13a, 4-(5-cyclopropyl-6-methoxypyrazolo[1,5-a]pyrimidin-3-yl)-5-fluoro-N-((3S,4S)-4-fluoropyrrolidin-3-yl)pyrimidin-2-amine]
2 nM | COc1cn2ncc(-c3cncc(N[C@@H]4CCCNC4)n3)c2nc1C1CC1 [Compound 11a, (R)-6-(5-cyclopropyl-6-methoxypyrazolo[1,5-a]pyrimidin-3-yl)-N-(piperidin-3-yl)pyrazin-2-amine]
11 nM | COc1cn2ncc(-c3ccnc(N[C@H]4CNC[C@@H]4F)n3)c2nc1C1CC1 [Compound 8a, 4-(5-cyclopropyl-6-methoxypyrazolo[1,5-a]pyrimidin-3-yl)-N-((3S,4S)-4-fluoropyrrolidin-3-yl)pyrimidin-2-amine]
9 nM | COc1cn2ncc(-c3ccnc(N[C@H]4CNCC[C@@H]4F)n3)c2nc1C1CC1 [Compound 7a, 4-(5-cyclopropyl-6-methoxypyrazolo[1,5-a]pyrimidin-3-yl)-N-((3S,4S)-4-fluoropiperidin-3-yl)pyrimidin-2-amine]
2 nM | COc1cn2ncc(-c3nc(N[C@H]4CNCC[C@@H]4F)ncc3F)c2nc1C1CC1 [Compound 15a, 4-(5-cyclopropyl-6-methoxypyrazolo[1,5-a]pyrimidin-3-yl)-5-fluoro-N-((3S,4S)-4-fluoropiperidin-3-yl)pyrimidin-2-amine]
